“Also recorded” adds a separate entry of the source. Like-named read-outs stand apart in the source and are kept apart here.
Columns and labels:
HCV IRES subdomain IIa [1] = experiment: FRET assay monitoring ligand-induced conformational change of Cy3/Cy5-labelled HCV IRES subdomain IIa; type: biochemical, hepatitis C virus; details: for FRET-signal change / conformational change of HCV IRES subdomain IIa, in words: pre-screening 1000, 100, 10 and 0.001 μM
Procedure: For the FRET assay, a two stranded HCV IRES subdomain IIa carrying a 5′-Cy3-label on one and 5′-Cy5-label on the other strand (Cy3-[…], Cy5-[…], Biomers.net GmbH) was used as described previously.[22,53] All samples containing labelled RNA were treated under light protection. FRET experiments were performed on a Tecan Spark 10 M plate reader (excitation/emission: 480/670 nm) using black half area 96 well microplates (Greiner Bio-One), based on a protocol by Zhou et al.[53] The 5′-Cy3- and 5′-Cy5-labelled single strands were annealed by heating to 75 °C in FRET buffer (10 mM HEPES pH 7.0, 2 mM MgCl2) and cooled down to room temperature for at least 20 min. The 5′-Cy3/Cy5-labelled RNA was diluted to 100 nM in FRET buffer and supplemented with compounds 8–28 in appropriate concentrations. Compounds 4 and 5 were used as positive controls. For the initial screening, compounds were added in final concentrations of 1000, 100, 10 and 0.001 μM (Fig. S4 ^†). If a concentration dependent reduction of the FRET signal (Cy5-emission) was observed, EC50-values were determined using ligand concentrations from 1 mM to 100 nM in 3.16-fold (semi-logarithmic) dilution series. For those compounds, the Cy3 emission was measured at 535 nm to confirm a conformational change dependent reduction in the Cy5 emission signal via Cy3 emission increase (Fig. S7 ^†). For each experiment, one DMSO negative control was carried out. The final DMSO concentration was always 2%. Excitation and emission spectra were recorded for the Cy3/Cy5-labelled RNA (100 nM) in FRET buffer to confirm excitation (Cy3) and emission (Cy5) wavelength as well as for each compound (1 μM) in FRET buffer to exclude any interference with the cyanine dyes. All measurements were performed at least as triplicates for screening and EC50-determination.
FRET experiments were analyzed using GraphPad Prism (version 8.0.1., GraphPad Software, Boston, Massachusetts USA, https://www.graphpad.com).

HCV IRES subdomain IIa [2] = type: binding, hepatitis C virus; details: for Kd: read-out: MST KD
Procedure: For the MST assay, the same sequence of the two stranded HCV IRES subdomain IIa as for the FRET assay was used. One strand was 5′-Cy5-labelled and the other strand was unmodified ([…], Cy5-[…], Biomers.net GmbH). All samples containing labelled RNA were treated under light protection. MST experiments were performed on a Monolith NT.115 from NanoTemper Technologies using standard uncoated capillaries. The strands were annealed by heating to 75 °C in MST buffer (10 mM HEPES pH 7.0, 2 mM MgCl2) and cooled down to room temperature for at least 20 min. The 5′-Cy5-labelled HCV IRES domain IIa RNA was diluted to 30 nM in MST buffer and supplemented with compounds 8–25 in appropriate concentrations. Compounds 4 and 5 were used as positive controls. For the initial screening, compounds were added to final concentrations of 1000 (or 316 if limited by solubility), 100, 10 and 0.001 μM (Fig. S5 ^†). If a concentration-dependent shift of thermophoresis was observed, KD-values were determined using concentrations ranging from 1 mM (if permitted by solubility, otherwise starting from 316 or 100 μM) to 0.01 μM in a 3.16-fold (semi-logarithmic) dilution series. For each experiment, one DMSO negative control was carried out. Final DMSO concentration was always 2%.
(§1) Off-target counter screens by MST were performed as described previously.[31,84] Briefly, the 5′-Cy5-labelled Tte preQ1-Riboswitch aptamer domain (Biomers.net GmbH) was heated to 75 °C for 5 min, cooled down to room temperature for at least 20 min and then diluted to 20 nM in MST buffer (50 mM Tris-HCl pH 7.5, 100 mM KCl, 25 mM MgCl2) and supplemented with compounds 4, 5, 8–13, 18, 21, 22 and 26 to final concentrations of 1000, 100, 10 and 0.001 μM. PreQ1 was used as a positive control. The 5′-Cy5-labelled B. angulatum SAM VI-Riboswitch aptamer domain (Eurofins Genomics GmbH) was heated to 75 °C for 5 min, cooled down to room temperature for at least 20 min and then diluted to 20 nM in MST buffer (50 mM Tris-HCl pH 7.5, 100 mM KCl, 25 mM MgCl2) and supplemented with compounds 5, 9 and 28 to final concentrations of 1000, 100, 10 and 0.001 μM. SAM was used as a positive control. For each experiment, one DMSO negative control was carried out. The final DMSO concentration was 2%. All measurements were performed at least as duplicates for pre-screening and triplicates for KD-determination. MST measurements were analyzed from signals after 18 s laser on-time using the MO.Affinity Analysis software (version 2.3) and exported for statistical analysis and plotting in GraphPad Prism (version 8.0.1., GraphPad Software, Boston, Massachusetts USA, https://www.graphpad.com).

HCV IRES = system: HCV IRES; set-up: method as in PMID 15380215; details: previously reported, Fig. 1; read-out: IC50 (Luciferase reporter gene assay); cited from earlier work
HCV IRES subdomain IIa [3] = system: HCV IRES subdomain IIa; set-up: method as in PMID 25349403; details: previous study, cited from earlier work
[4] = target: SAM VI-Riboswitch aptamer domain; experiment: MST off-target counter screen, SAM VI-riboswitch aptamer domain; type: binding, B. angulatum; details: positive control; read-out: KD of positive control binding to SAM-VI-riboswitch (MST)
Procedure: as §1

HCV IRES subdomain IIa [5] = system: HCV IRES subdomain IIa; set-up: method as in PMID 16279767, PMID 24930829, PMID 27775338; details: previously reported, Fig. 1; read-out: EC50 (FRET assay); cited from earlier work
[6] = system: Tte preQ1-Riboswitch aptamer domain; experiment: MST off-target counter screen, preQ1-riboswitch aptamer domain; type: binding, Thermoanaerobacter tengcongensis; details: 1000, 100, 10 and 0.001 μM
Procedure: as §1

[7] = 100 nM Cy3/Cy5-labelled RNA, 10 mM HEPES pH 7.0, 2 mM MgCl2, 2% DMSO, ≥ = lower limit
[8] = 30 nM Cy5-labelled RNA, 10 mM HEPES pH 7.0, 2 mM MgCl2, 2% DMSO, ≥ = no saturation, n.b. no binding observed

Row | Structure (SMILES) | EC50 (HCV IRES subdomain IIa [1]; [7]) | Kd (HCV IRES subdomain IIa [2]; [8]) | FRET-signal change / conformational change of HCV IRES subdomain IIa, in words (HCV IRES subdomain IIa [1]) | other results
1 | COc1ccc2c(C)nc(NC(=N)N)nc2c1 [Compound 8c] | 0.12 ± 0.024 mM | 134 ± 43 µM | – | –
2 | Nc1cc(-c2ccc3[nH]ncc3c2)c2cc[nH]c2n1 [Compound 12] | ≥ 0.3 mM | ≥ 50 µM | – | –
3 | Cc1nc(/N=C(\N)NCCc2ccccc2)nc(C)c1OCCCN(C)C [Compound 2] | – | – | – | IC50 (HCV IRES): 2.1 µM
4 | Nc1nc2[nH]cnc2c(=O)[nH]1 [G] | – | – | – | HCV IRES subdomain IIa binding, in words (HCV IRES subdomain IIa [3]): weak binding behavior; EC50 (HCV IRES subdomain IIa [3]; read-out: EC50 HCV IRES subdomain IIa binding): 1050 µM
5 | C[S+](CC[C@H](N)C(=O)[O-])C[C@H]1O[C@@H](n2cnc3c(N)ncnc32)[C@H](O)[C@@H]1O (some centres unmarked) [SAM, reference compound] | – | – | – | Kd [4]: 0.772 µM
6 | COc1cccc(C2NC(N)=Nc3nc4ccccc4n32)c1 (centres unmarked) [Compound 21] | – | – | no large changes in FRET-signals; also recorded: no changes in the FRET-assay | –
7 | NC1=Nc2nc3ccccc3n2C(C2CC2)N1 (centres unmarked) [Compound 18] | – | – | no large changes in FRET-signals; also recorded: no changes in the FRET-assay | –
8 | NC1=NC(c2cn[nH]c2-c2cccc(O)c2)n2c(nc3ccccc32)N1 (centres unmarked) [Compound 13] | ≥ 1 mM | ≥ 100 µM | – | EC50 (HCV IRES subdomain IIa [1]; as printed in text in mM): ≥ 1 mM
9 | NC(=O)c1c[nH]c2ccc(NC(=O)CCc3cc4n(n3)CCCNC4)cc12 [Compound 10] | ≥ 0.5 mM | – | signals in the FRET assay | Cy3-emission change in FRET assay, in words (HCV IRES subdomain IIa [1]; Cy3 emission at 535 nm): no increase of Cy3-emission; MST KD (HCV IRES subdomain IIa [2]; [8]): n.b.
10 | NC1=Nc2ccccc2C2(CC2)N1 [Compound 7] | – | – | – | EC50 (HCV IRES subdomain IIa [5]): 100 µM
11 | NC1=NC(c2ccccc2)n2c(nc3ccccc32)N1 (centres unmarked) [Compound 22] | – | – | no large changes in FRET-signals; also recorded: no changes in the FRET-assay | –
12 | N=C(N)NC(=O)c1nc(Cl)c(N)nc1N [Compound 26, amiloride, reference compound] | ≥ 0.5 mM | ≥ 100 µM | – | preQ1-riboswitch binding / selectivity (MST-shift), in words [6]: selectivity over the preQ1-riboswitch; binding to HCV IRES subdomain IIa (MST-shift), in words (HCV IRES subdomain IIa [2]; pre-screening 1000 (or 316), 100, 10 and 0.001 μM): some weak binding

— publication PMC11110755, “Structure-based virtual screening of unbiased and RNA-focused libraries to identify new ligands for the HCV IRES model system” (RSC Medicinal Chemistry, 2024)
